# Test results: patent publication US10744146B2, “Composition having effects of preventing or ameliorating conditions or diseases caused by brain hypofunction” (SUNTORY HOLDINGS LIMITED, priority 2001, dated 2020)
# Key:
# hippocampus LTP = details: 22-month-old rats, arachidonic acid diet 10 mg/rat/day for 8 weeks; versus 4-month-old young rats; cited from earlier work
# old male Fischer rats = experiment: Probe test after Morris water maze learning (time in quadrant where escape platform used to be); assay type: in vivo, rat; details: for time spent in the quadrant (¼) where the escape platform used to be, mean±standard deviation: old rats 21 months
# Procedure: A Morris water maze learning test was conducted around the third month of the experiment (age of old rats: 21 months, age of young rats: 7 months). The Morris water maze test is a learning test based on spatial recognition in which water stained black with ink is filled (height of water level: 20 cm) into a water tank (diameter: 120 cm, height: 35 cm), a rat is placed on an escape platform of a size (diameter: 11.5 cm, height: 19 cm) that is just large enough for the rat to stand on (the escape platform is located beneath the surface of the water and cannot be seen by rats swimming in the water tank), the rat on which the learning test is to be performed is placed in the water tank at a predetermined location in the tank (starting point), and then forced to swim to the escape platform. This test is recognized to have a correlation with the hippocampus that governs memory, and is widely used in the US and Europe. As the test is repeated, the rats learn the location of the escape platform. The rats were allowed to learn using the method described below. Namely, after releasing a rat from the starting point of the Morris water maze test apparatus, if the rat was unable to reach the escape platform within 60 seconds, the rat was placed on the escape platform, thereby enabling it to learn the location of the unseen escape platform. This learning process was continued for 2 weeks no more than twice a day. The percentage of the amount of time required to swim from the starting point to the escape platform within an angular deviation range of ±15° to the total swimming time (Hit %, see FIG. 2) was used as an indicator of learning. […] In FIG. 3, each graduation on the scale of the horizontal axis represents four trials, or two days worth of testing.
# Next, in order to determine the degree of learning acquisition, a probe test was conducted on the day after two weeks of the aforementioned learning, namely on day 15. If the escape platform is taken away after the rats have acquired learning, the rats swim around at the location where the escape platform used to be. The time during which the rats swim around at the former location of the escape platform based on the memory of where it used to be (evaluated by dividing the water tank into four quadrants and evaluated as the amount of time (seconds) spent in the quadrant where the escape platform used to be) can used to evaluate the degree of learning acquisition. The paths swam by the No. 1 and No. 2 rats of the YC group, OA group and OC group are shown (FIG. 4). Furthermore, as the rats were allowed to learn by changing the starting points for individual rats, the starting point (S) and quadrant where the escape platform used to be in FIG. 4 differ according to individual rats. […]
Structure (SMILES),hippocampus LTP levels (hippocampus LTP),"absorption (old male Fischer rats; Example 4, inferred from the probe test at the same ingested amount of arachidonic acid)","time spent in the quadrant (¼) where the escape platform used to be, mean±standard deviation (old male Fischer rats; Example 4, 40 mg arachidonic acid/rat/day, group OA 6 animals, group 8A8 8 animals) [s]","degree of learning acquisition (old male Fischer rats; Example 4, old rats, comparison between TGA40S and 8A8 and with young rats)","time spent in the quadrant (¼) where the escape platform used to be, mean±standard deviation (old male Fischer rats; Example 5, arachidonic acid per rat per day: 8A8 diet 40 g (so in the source), 8A8-containing oil or fat diet 13.2 mg) [s]"
CCCCC/C=C\C/C=C\C/C=C\C/C=C\CCCC(=O)O [arachidonic acid],recovery to the level of young rats,,,,
"CCCCC/C=C\C/C=C\C/C=C\C/C=C\CCCC(=O)OC(COC(=O)CCCCCCC)COC(=O)CCCCCCC [8A8, 1,3-capryloyl-2-arachidonoyl-glycerol]",,more easily absorbed than TGA40S,27.18 ± 5.10,tended to result in a higher degree of learning acquisition,27.00 ± 4.65
